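Cultured in 96-well plates, cells were exposed to test compound for 48 hours across five concentrations. GI50 is the concentration that inhibits growth by half. The concentration for full growth arrest is given as TGI.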
How the values were obtained:
Experiment in all cases: NCI-60 cell line screen, 48 h
[1] = test system: HCT-15 colon
[2] = test system: SK-MEL-28 melanoma
[3] = test system: COLO 205 colon
[4] = test system: A498 renal
[5] = test system: M14 melanoma
[6] = test system: U251 CNS
[7] = test system: HT29 colon
[8] = test system: HOP-62 NSCLC
[9] = test system: MDA-MB-435
[10] = test system: NCI-H23 lung

| SMILES | GI50 [1] | TGI [1] | GI50 [2] | TGI [2] | GI50 [3] | TGI [3] | GI50 [4] | TGI [4] | GI50 [5] | TGI [5] | GI50 [6] | TGI [6] | GI50 [7] | TGI [7] | GI50 [8] | TGI [8] | GI50 [9] | TGI [9] | GI50 [10] | TGI [10] |
| --- | --- | --- | --- | --- | --- | --- | --- | --- | --- | --- | --- | --- | --- | --- | --- | --- | --- | --- | --- | --- |
| COc1ccc(Cn2cc3c(c2-c2ccccc2)CCc2cnoc2-3)cc1OC | 0.522 µM | > 100 µM | 26.3 µM | > 100 µM | 0.55 µM | 3.81 µM | 0.253 µM | 3.27 µM | 0.566 µM | > 100 µM | 0.774 µM | > 100 µM | 0.387 µM | > 100 µM | 1.34 µM | > 100 µM | 0.244 µM | 0.864 µM | 1.46 µM | > 100 µM |
| COc1cc2ncnc(Nc3cccc(Cl)c3F)c2cc1OC(=O)N1CCN(C)C[C@H]1C | > 41.4 µM | > 88.8 µM | > 42.2 µM | > 65.5 µM | > 38.1 µM | > 58.1 µM | 3.44 µM | > 45.1 µM | > 40.9 µM | > 62.8 µM | > 44.2 µM | > 64.5 µM | > 38.4 µM | > 64.9 µM | > 35.7 µM | > 66.3 µM | > 40.7 µM | > 59.7 µM | > 47.5 µM | 97.3 µM |
| C[C@@H](NC(=O)/C(C#N)=C/c1ccc([N+](=O)[O-])cc1)c1ccccc1 | 1.85 µM | 3.88 µM | 1.95 µM | 3.83 µM | 2 µM | 3.71 µM | 4.25 µM | 8.49 µM | 2.05 µM | 4.42 µM | 1.79 µM | 3.44 µM | 4.85 µM | 10.2 µM | 2.88 µM | 8.91 µM | 2.7 µM | 7.63 µM | 2.08 µM | 5.02 µM |
| C#CCN(Cc1nc2cc(C(F)(F)F)ccc2nc1-c1ccccc1)c1ccc(C)cc1 | 6.01 µM | > 24.8 µM | 13.9 µM | > 41 µM | 2.79 µM |  | 10.6 µM | 27.5 µM | 5.4 µM | 32 µM | 11.6 µM | > 38.1 µM | 12.4 µM | > 32 µM | 4.41 µM | 33.9 µM | 2.73 µM | 9.09 µM | 8.48 µM | > 34.7 µM |
| Cc1ccc2c(c1)c(Sc1ccc(C(=O)NO)cc1)c1n2CN(C)CC1 | 3.65 µM | 13.6 µM | 1.58 µM | 3.63 µM | 1.82 µM | 4.11 µM | 0.191 µM | 2.16 µM | 1.72 µM | 3.79 µM | 1.61 µM | 3.42 µM | 2.53 µM | 8.38 µM | 1.61 µM | 3.83 µM | 1.58 µM | 3.37 µM | 1.8 µM | 3.85 µM |
| N=C(N)SCc1c2ccccc2c(CSC(=N)N)c2ccccc12 | 12.4 µM | 32.4 µM | 10.6 µM | 24.1 µM | 2.75 µM | 14.1 µM | 7.42 µM | 22.9 µM | 10.9 µM | 25.5 µM | 3.13 µM | 26.7 µM | 5.94 µM | 21.9 µM | 10.5 µM | 26.5 µM | 12.1 µM | 32.6 µM | 4.04 µM | 20.5 µM |
| COc1ccc2c(O)c(/C=C3\N=Nc4ccccc43)oc2c1C[C@@H]1CCNC[C@H]1F | 14.2 µM | 28.9 µM |  |  | 1.88 µM | 5.05 µM | 11.3 µM | 25.6 µM | 6.12 µM | 21.4 µM | 3.17 µM | 10.6 µM | 2.7 µM | 11 µM | 11.1 µM | 24.6 µM | 11.3 µM | 24.4 µM | 10.6 µM | 24.6 µM |
| CC(C)(C)[Si](C)(C)OC1[C@@H](O[Si](C)(C)C(C)(C)C)[C@@H](CNC(=O)NC(=O)CF)O[C@H]1n1cnc2c(NC(=O)Nc3ccccc3)ncnc21 (stereo partly specified) | 11.2 µM | > 50 µM | > 50 µM | > 50 µM | 7.66 µM | 18.4 µM | 8.92 µM | 25.3 µM | 15.9 µM | > 50 µM | 9.67 µM | 25.8 µM | 7.35 µM | 25.9 µM | 9.31 µM | > 50 µM | 14.6 µM | > 50 µM | 14.3 µM | > 50 µM |
| CCOC(=O)c1cc(C(=O)c2cc(OC)c(OC)c(OC)c2)n2c1ccc1ccccc12 | 0.137 µM | > 100 µM | 1.45 µM | > 100 µM | 0.26 µM | 1.94 µM | 0.0362 µM | 0.316 µM | 0.137 µM | > 100 µM | 0.428 µM | > 100 µM | 0.254 µM |  | 0.466 µM | > 100 µM | 0.0367 µM | 0.173 µM | 0.478 µM | > 100 µM |
| CCCCCCCCCCCCSC1=C(Cl)C(=O)C(OC)=C(OC)C1=O | 1.69 µM | 27.8 µM | 5.93 µM | 21.8 µM | 4.32 µM | 18.4 µM |  | 14.1 µM | 2.53 µM | 18.4 µM | 1.57 µM | 12.2 µM | 3.22 µM | 17.5 µM | 6.07 µM | 18.5 µM | 0.653 µM | 10.2 µM | 3.36 µM | 20.2 µM |
| CC(=O)Nc1c(I)c(NC(C)=O)c(I)c(C(=O)O)c1I | > 100 µM | > 100 µM | > 100 µM | > 100 µM | > 100 µM | > 100 µM | > 100 µM | > 100 µM | > 100 µM | > 100 µM |  |  | > 100 µM | > 100 µM | > 100 µM | > 100 µM | > 100 µM | > 100 µM | > 100 µM | > 100 µM |
| Clc1ccc(Nc2ccnc(N3CCN(c4ccnc5cc(Cl)ccc45)CC3)n2)cc1 | 2.49 µM | 10 µM |  |  | 1.92 µM | 4.63 µM | 0.603 µM | 6.91 µM | 1.77 µM | 4.16 µM | 2.84 µM | 11.1 µM | 2.03 µM | 4.88 µM | 3.1 µM | 20.9 µM | 1.86 µM | 5.99 µM | 4.32 µM | 52.3 µM |
